Measured values from US11433055B2, “Chromane monobactam compounds for the treatment of bacterial infections” (priority 2017, dated 2022).
Where a name gives a salt, the structure may show the parent alone. Read-outs that look alike come from different tables or passages of the source.

Tests used:
Assay type in all cases: cell-based
Conditions in all cases: lowest concentration inhibiting 95% of bacterial growth, in the presence of β lactamase inhibitor (BLi, Relebactam), 22 hours, 35±2° C., OD600
[1] = tested on: Acinetobacter baumannii expressing TEM-1, AmpC, and Oxa-24/40 (CL6188)
[2] = tested on: Escherichia coli expressing NDM-1 (CLB30016)
[3] = tested on: Klebsiella pneumoniae expressing KPC-1 (CL6569)
[4] = tested on: Pseudomonas aeruginosa expressing AmpC (CL5701)

SMILES | AB_CL6188 MITC95 [1] [µM] | EC_CLB30016 MITC95 [2] [µM] | KP_CL6569 MITC95 [3] [µM] | PA_CL5701 MITC95 [4] [µM] | AB_CL6188 MITC95 ([1]; sulfate formate) [µM] | EC_CLB30016 MITC95 ([2]; sulfate formate) [µM] | KP_CL6569 MITC95 ([3]; sulfate formate) [µM] | PA_CL5701 MITC95 ([4]; sulfate formate) [µM]
CC1(C)[C@H](NC(=O)/C(=N\O[C@](C)(C(=O)O)[C@H]2CCc3cc(-c4cn(C[C@@H](O)CN)[n+](C[C@H]5CCNC5)c4)ccc3O2)c2csc(N)n2)C(=O)N1OS(=O)(=O)[O-] [Example 41, mono((S)-3-((Z)-2-(((S)-1-((R)-6-(1-((S)-3-amino-2-hydroxypropyl)-2-(((S)-pyrrolidin-1-ium-3-yl)methyl)-1H-pyrazol-2-ium-4-yl)chroman-2-yl)-1-carboxyethoxy)imino)-2-(2-aminothiazol-4-yl)acetamido)-2,2-dimethyl-4-oxoazetidin-1-yl sulfate) mono (2,2,2-trifluoroacetate)] | 1.56 | >50 | 0.1 | 0.78 | – | – | – | –
C[n+]1cc(-c2ccc3c(c2)CC[C@H]([C@](C)(O/N=C(\C(=O)N[C@@H]2C(=O)N(OS(=O)(=O)[O-])C2(C)C)c2csc(N)n2)C(=O)O)O3)cn1C[C@@H](O)CN [Example 8, (S)-3-((Z)-2-(((S)-1-((R)-6-(1-((S)-3-amino-2-hydroxypropyl)-2-methyl-1H-pyrazol-2-ium-4-yl)chroman-2-yl)-1-carboxyethoxy)imino)-2-(2-aminothiazol-4-yl)acetamido)-2,2-dimethyl-4-oxoazetidin-1-yl sulfate] | 100 | 100 | 3.125 | 25 | – | – | – | –
C[n+]1cc(-c2ccc3c(c2)CC[C@H]([C@](C)(O/N=C(\C(=O)N[C@@H]2C(=O)N(OS(=O)(=O)[O-])C2(C)C)c2csc(N)n2)C(=O)O)O3)ccc1NC(CN)CN.O=CO [Example 23B, (3S)-3-((Z)-2-(((1S)-1-((2R)-6-(6-((1-amino-3-ammoniopropan-2-yl)amino)-1-methylpyridin-1-ium-3-yl)chroman-2-yl)-1-carboxyethoxy)imino)-2-(2-aminothiazol-4-yl)acetamido)-2,2-dimethyl-4-oxoazetidin-1-yl sulfate formate] | – | – | – | – | 12.5 | 100 | 3.125 | 25
